Test results as given in ChEMBL document CHEMBL1156023, “Grassystatins A-C from marine cyanobacteria, potent cathepsin E inhibitors that reduce antigen presentation” (J Med Chem, 2009).
Square brackets hold non-standard residues; d marks the D form. Peptide text beside a SMILES is read from it. * marks the point of attachment. Sta = CC(C)C[C@H](N)[C@@H](O)CC(=O)O; NMe2Val = CC(C)[C@@H](C(=O)*)N(C)C; dNMeF = CN[C@H](Cc1ccccc1)C(=O)O; dHiv = CC(C)[C@@H](O)C(=O)O; Hiv = CC(C)[C@H](O)C(=O)O

Legend:
[1] = target: Dipeptidyl peptidase 9 (Homo sapiens) (UniProt Q86TI2); test: Inhibition of DPP9 assessed as residual activity at 10 uM after 10 to 15 mins by fluorescence assay relative to control
Sequence of Dipeptidyl peptidase 9 (Homo sapiens) (Q86TI2 2-863 limits assumed): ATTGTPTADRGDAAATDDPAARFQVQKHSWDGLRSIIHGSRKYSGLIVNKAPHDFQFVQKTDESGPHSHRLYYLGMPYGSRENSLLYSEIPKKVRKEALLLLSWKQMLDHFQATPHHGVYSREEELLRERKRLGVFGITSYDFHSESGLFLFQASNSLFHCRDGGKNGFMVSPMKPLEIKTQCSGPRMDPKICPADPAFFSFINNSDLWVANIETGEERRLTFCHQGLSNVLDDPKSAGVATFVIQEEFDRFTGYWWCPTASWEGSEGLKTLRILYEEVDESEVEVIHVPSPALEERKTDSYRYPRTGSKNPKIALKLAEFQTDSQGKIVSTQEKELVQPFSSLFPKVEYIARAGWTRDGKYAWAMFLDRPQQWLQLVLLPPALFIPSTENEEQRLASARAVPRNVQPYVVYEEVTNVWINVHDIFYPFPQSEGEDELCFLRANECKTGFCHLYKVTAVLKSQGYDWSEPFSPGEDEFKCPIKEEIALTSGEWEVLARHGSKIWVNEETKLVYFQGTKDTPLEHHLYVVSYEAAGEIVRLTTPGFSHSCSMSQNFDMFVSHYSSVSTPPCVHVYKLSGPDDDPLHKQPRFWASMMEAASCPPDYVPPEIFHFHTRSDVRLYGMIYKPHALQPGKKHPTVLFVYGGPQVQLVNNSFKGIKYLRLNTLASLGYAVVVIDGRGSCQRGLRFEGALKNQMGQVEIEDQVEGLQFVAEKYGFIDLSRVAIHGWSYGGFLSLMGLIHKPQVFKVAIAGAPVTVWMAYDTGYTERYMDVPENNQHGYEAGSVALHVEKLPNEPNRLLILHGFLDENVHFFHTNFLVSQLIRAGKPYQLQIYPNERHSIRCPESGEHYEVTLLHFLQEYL

[2] = target: Cathepsin E (Homo sapiens) (UniProt P14091); settings: 5.08 to 100000 nM
Sequence of Cathepsin E (Homo sapiens) (P14091 whole entry, the tested form may be a part): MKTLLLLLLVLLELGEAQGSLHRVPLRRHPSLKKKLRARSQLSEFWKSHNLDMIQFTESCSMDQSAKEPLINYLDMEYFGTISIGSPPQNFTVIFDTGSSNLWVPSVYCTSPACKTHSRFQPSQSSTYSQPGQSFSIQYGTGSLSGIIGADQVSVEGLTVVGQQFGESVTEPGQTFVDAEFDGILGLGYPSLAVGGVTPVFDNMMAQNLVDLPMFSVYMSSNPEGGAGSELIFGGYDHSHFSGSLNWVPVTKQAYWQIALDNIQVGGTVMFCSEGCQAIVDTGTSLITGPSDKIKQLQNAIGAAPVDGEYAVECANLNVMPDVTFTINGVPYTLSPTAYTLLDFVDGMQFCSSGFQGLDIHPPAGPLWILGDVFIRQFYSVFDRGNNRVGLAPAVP

Collagenase 3 = Collagenase 3 (Homo sapiens, UniProt P45452); test: Inhibition of MMP13 catalytic domain after 10 to 15 mins by fluorescence assay
[3] = target: Coagulation factor X (Homo sapiens) (UniProt P00742); test: Inhibition of factor 10a assessed as residual activity at 10 uM after 10 to 15 mins by fluorescence assay relative to control
Sequence of Coagulation factor X (Homo sapiens) (P00742 41-179 limits assumed): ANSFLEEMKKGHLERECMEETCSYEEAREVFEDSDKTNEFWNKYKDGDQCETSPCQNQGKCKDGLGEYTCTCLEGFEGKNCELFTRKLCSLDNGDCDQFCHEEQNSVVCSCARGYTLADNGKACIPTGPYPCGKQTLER
Sequence of Coagulation factor X (Homo sapiens) (P00742 235-488 limits assumed): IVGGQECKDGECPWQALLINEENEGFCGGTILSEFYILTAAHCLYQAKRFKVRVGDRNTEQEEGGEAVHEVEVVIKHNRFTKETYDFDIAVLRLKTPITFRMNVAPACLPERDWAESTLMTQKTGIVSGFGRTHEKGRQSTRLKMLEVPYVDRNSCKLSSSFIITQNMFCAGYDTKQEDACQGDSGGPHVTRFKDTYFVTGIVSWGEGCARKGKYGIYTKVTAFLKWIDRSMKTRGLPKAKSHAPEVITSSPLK

[4] = target: Serine protease 1 (Bos taurus) (UniProt P00760); test: Inhibition of bovine pancreatic trypsin assessed as residual activity at 10 uM after 10 to 15 mins by fluorescence assay relative to control
[5] = target: Prothrombin (Homo sapiens) (UniProt P00734); test: Inhibition of thrombin alpha assessed as residual activity at 10 uM after 10 to 15 mins by fluorescence assay relative to control
Renin = Renin (Homo sapiens, UniProt P00797); test: Inhibition of human renin after 10 to 15 mins by fluorescence assay
[6] = target: Urokinase-type plasminogen activator (Homo sapiens) (UniProt P00749); test: Inhibition of urokinase assessed as residual activity at 10 uM after 10 to 15 mins by fluorescence assay relative to control
Chymase (Homo sapiens) = Chymase (Homo sapiens) (UniProt P23946); test: Inhibition of chymase assessed as residual activity at 10 uM after 10 to 15 mins by fluorescence assay relative to control
[7] = target: Kallikrein-5 (Homo sapiens) (UniProt Q9Y337); test: Inhibition of kallikrein 5 assessed as residual activity at 10 uM after 10 to 15 mins by fluorescence assay relative to control
Caspase-8 (Homo sapiens) = Caspase-8 (Homo sapiens) (UniProt Q14790); test: Inhibition of caspase 8 assessed as residual activity at 10 uM after 10 to 15 mins by fluorescence assay relative to control
[8] = target: Cathepsin Z (Homo sapiens) (UniProt Q9UBR2); test: Inhibition of cathepsin Z assessed as residual activity at 10 uM after 10 to 15 mins by fluorescence assay relative to control
[9] = target: Kallikrein-8 (Homo sapiens) (UniProt O60259); test: Inhibition of kallikrein 8 assessed as residual activity at 10 uM after 10 to 15 mins by fluorescence assay relative to control
Caspase-14 = Caspase-14 (Homo sapiens, UniProt P31944); test: Inhibition of caspase 14 after 10 to 15 mins by fluorescence assay
Sequence of Caspase-14 (P31944 6-146 limits assumed): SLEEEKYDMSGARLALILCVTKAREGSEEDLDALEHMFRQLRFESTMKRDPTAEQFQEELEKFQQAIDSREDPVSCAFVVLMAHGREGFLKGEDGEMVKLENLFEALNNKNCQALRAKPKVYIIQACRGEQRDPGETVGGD
Sequence of Caspase-14 (P31944 153-242 limits assumed): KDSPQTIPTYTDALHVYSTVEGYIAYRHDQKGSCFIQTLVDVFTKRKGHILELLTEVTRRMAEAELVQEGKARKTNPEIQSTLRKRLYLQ

[10] = target: Stromelysin-3 (Homo sapiens) (UniProt P24347); test: Inhibition of MMP11 assessed as residual activity at 10 uM after 10 to 15 mins by fluorescence assay relative to control
Caspase-2 (Homo sapiens) = Caspase-2 (Homo sapiens) (UniProt P42575); test: Inhibition of caspase 2 assessed as residual activity at 10 uM after 10 to 15 mins by fluorescence assay relative to control
Sequence of Caspase-2 (Homo sapiens) (P42575 170-325 limits assumed): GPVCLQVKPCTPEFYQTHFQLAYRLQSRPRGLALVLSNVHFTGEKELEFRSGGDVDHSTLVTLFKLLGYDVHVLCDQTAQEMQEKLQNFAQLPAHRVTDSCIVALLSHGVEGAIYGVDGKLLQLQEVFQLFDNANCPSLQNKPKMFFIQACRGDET
Sequence of Caspase-2 (Homo sapiens) (P42575 334-452 limits assumed): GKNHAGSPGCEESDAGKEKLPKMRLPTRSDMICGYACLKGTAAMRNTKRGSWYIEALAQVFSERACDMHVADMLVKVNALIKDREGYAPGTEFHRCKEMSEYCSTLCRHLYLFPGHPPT

Neutrophil collagenase [11] = target: T1, Neutrophil collagenase (Homo sapiens, UniProt P22894); test: Inhibition of MMP8 assessed as residual activity at 10 uM after 10 to 15 mins by fluorescence assay relative to control
[12] = target: Macrophage metalloelastase (Homo sapiens, UniProt P39900); test: Inhibition of MMP12 catalytic domain after 10 to 15 mins by fluorescence assay
Sequence of Macrophage metalloelastase (P39900 whole entry, the tested form may be a part): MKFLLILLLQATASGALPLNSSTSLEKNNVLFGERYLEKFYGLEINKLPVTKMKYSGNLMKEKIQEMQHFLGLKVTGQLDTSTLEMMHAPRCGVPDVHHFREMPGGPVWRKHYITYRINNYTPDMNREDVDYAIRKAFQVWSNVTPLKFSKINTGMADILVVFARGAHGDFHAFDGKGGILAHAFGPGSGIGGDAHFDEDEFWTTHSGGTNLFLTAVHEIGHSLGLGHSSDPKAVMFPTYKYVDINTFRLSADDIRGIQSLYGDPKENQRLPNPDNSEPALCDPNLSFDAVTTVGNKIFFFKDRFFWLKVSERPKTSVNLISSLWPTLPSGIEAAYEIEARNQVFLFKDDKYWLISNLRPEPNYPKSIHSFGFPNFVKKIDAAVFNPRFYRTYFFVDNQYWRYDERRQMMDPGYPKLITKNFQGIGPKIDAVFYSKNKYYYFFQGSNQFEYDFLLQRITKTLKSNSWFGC

Caspase-4 (Mus musculus) = Caspase-4 (Mus musculus) (UniProt P70343); test: Inhibition of mouse caspase 11 assessed as residual activity at 10 uM after 10 to 15 mins by fluorescence assay relative to control
Sequence of Caspase-4 (Mus musculus) (P70343 81-266 limits assumed): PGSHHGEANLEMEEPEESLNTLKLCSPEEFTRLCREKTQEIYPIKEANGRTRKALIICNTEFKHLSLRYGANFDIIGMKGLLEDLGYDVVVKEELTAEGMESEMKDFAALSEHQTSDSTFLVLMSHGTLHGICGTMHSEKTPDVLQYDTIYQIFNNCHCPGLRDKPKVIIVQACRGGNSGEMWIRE
Sequence of Caspase-4 (Mus musculus) (P70343 286-373 limits assumed): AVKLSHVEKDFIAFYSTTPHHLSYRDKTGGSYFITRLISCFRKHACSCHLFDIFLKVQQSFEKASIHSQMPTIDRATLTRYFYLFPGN

[13] = target: Angiotensin-converting enzyme (Homo sapiens) (UniProt P12821); test: Inhibition of ACE1 assessed as residual activity at 10 uM after 10 to 15 mins by fluorescence assay relative to control
[14] = target: T2, Matrix metalloproteinase-9 (Homo sapiens, UniProt P14780); test: Inhibition of MMP9 catalytic domain after 10 to 15 mins by fluorescence assay
T2 sequence (P14780 whole entry, the tested form may be a part): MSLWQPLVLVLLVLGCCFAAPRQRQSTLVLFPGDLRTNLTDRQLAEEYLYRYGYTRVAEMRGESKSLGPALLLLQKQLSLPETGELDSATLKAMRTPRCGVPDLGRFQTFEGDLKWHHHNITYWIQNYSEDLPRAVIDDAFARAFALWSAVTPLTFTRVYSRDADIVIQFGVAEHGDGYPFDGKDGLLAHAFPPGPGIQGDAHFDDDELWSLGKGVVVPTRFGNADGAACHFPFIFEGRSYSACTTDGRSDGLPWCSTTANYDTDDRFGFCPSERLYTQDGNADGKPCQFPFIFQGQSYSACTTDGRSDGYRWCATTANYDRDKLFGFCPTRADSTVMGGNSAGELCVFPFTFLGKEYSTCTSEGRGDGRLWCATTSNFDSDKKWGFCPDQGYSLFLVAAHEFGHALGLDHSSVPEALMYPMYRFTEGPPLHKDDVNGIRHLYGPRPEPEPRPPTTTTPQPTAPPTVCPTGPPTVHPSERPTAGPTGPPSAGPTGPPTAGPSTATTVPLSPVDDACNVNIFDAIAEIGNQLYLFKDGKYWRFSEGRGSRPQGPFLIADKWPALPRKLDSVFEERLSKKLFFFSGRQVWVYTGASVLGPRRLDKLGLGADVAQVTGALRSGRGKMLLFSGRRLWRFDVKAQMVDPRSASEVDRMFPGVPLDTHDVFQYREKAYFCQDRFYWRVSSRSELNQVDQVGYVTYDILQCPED

[15] = target: Dipeptidyl peptidase 1 (Homo sapiens) (UniProt P53634); test: Inhibition of cathepsin C assessed as residual activity at 10 uM after 10 to 15 mins by fluorescence assay relative to control
[16] = target: Caspase-14 (Homo sapiens) (UniProt P31944); test: Inhibition of caspase 14 assessed as residual activity at 10 uM after 10 to 15 mins by fluorescence assay relative to control
Neutrophil collagenase [17] = target: T1, Neutrophil collagenase; test: Inhibition of MMP8 catalytic domain after 10 to 15 mins by fluorescence assay
Target sequence in this assay (P22894 whole entry, the tested form may be a part): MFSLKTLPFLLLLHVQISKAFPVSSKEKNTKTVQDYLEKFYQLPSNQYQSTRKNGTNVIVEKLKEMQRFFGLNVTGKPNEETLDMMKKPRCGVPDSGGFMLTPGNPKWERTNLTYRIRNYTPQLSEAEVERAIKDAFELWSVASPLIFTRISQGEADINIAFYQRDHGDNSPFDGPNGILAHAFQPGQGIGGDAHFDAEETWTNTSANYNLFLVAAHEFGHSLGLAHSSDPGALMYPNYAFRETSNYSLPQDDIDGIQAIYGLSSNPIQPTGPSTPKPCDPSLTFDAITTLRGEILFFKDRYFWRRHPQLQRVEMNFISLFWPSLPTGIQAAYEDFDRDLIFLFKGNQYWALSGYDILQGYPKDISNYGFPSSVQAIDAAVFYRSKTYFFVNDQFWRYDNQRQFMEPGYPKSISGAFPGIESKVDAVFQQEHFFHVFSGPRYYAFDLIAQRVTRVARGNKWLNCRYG

Caspase-4 = Caspase-4 (Mus musculus, UniProt P70343); test: Inhibition of mouse caspase 11 after 10 to 15 mins by fluorescence assay
Sequence of Caspase-4 (P70343 81-266 limits assumed): as the sequence (P70343 81-266 limits assumed) above
Sequence of Caspase-4 (P70343 286-373 limits assumed): as the sequence (P70343 286-373 limits assumed) above

Caspase-1 (Homo sapiens) = Caspase-1 (Homo sapiens) (UniProt P29466); test: Inhibition of caspase 1 assessed as residual activity at 10 uM after 10 to 15 mins by fluorescence assay relative to control
Stromelysin-2 = Stromelysin-2 (Homo sapiens, UniProt P09238); test: Inhibition of MMP10 catalytic domain after 10 to 15 mins by fluorescence assay
Caspase-2 = Caspase-2 (Homo sapiens, UniProt P42575); test: Inhibition of caspase 2 after 10 to 15 mins by fluorescence assay
Sequence of Caspase-2 (P42575 170-325 limits assumed): as the sequence (P42575 170-325 limits assumed) above
Sequence of Caspase-2 (P42575 334-452 limits assumed): as the sequence (P42575 334-452 limits assumed) above

[18] = target: Matrilysin (Homo sapiens) (UniProt P09237); test: Inhibition of MMP7 assessed as residual activity at 10 uM after 10 to 15 mins by fluorescence assay relative to control
Interstitial collagenase = Interstitial collagenase (Homo sapiens, UniProt P03956); test: Inhibition of MMP1 after 10 to 15 mins by fluorescence assay
[19] = target: T2, Matrix metalloproteinase-9; test: Inhibition of MMP9 assessed as residual activity at 10 uM after 10 to 15 mins by fluorescence assay relative to control
Stromelysin-3 = Stromelysin-3 (Homo sapiens, UniProt P24347); test: Inhibition of MMP11 catalytic domain after 10 to 15 mins by fluorescence assay

Q: Which results are given for `COC(=O)[C@@H]1CCCN1C(=O)[C@@H](Cc1ccccc1)N(C)C(=O)[C@H](C)NC(=O)[C@@H](NC(=O)C[C@H](O)[C@H](CC(C)C)NC(=O)[C@H](CC(N)=O)NC(=O)[C@H](CC(C)C)NC(=O)[C@H](OC(=O)[C@@H](OC(=O)[C@H](C(C)C)N(C)C)C(C)C)C(C)C)[C@@H](C)O` [GRASSYSTATIN A] (NMe2Val-[Hiv][dHiv]LN[Sta]TA[dNMeF]P-OMe)?
A: Activity [1]: 82%; inhibition [2]: tde; IC50 (Collagenase 3): 5 µM; Activity [3]: 84%; Activity [4]: 77%; Activity [5]: 86%; IC50 (Renin): 50 µM; Activity [6]: 79%; Activity (Chymase (Homo sapiens)): 90%; Activity [7]: 84%; Activity (Caspase-8 (Homo sapiens)): 82%; Activity [8]: 94%; Activity [9]: 101%; IC50 (Caspase-14): 5 µM; Activity [10]: 88%; Activity (Caspase-2 (Homo sapiens)): 69%; Activity (Neutrophil collagenase [11]): 70%; IC50 [12]: 5 µM; Activity (Caspase-4 (Mus musculus)): 60%; Activity [13]: 84%; IC50 [14]: 5 µM; Activity [15]: 110%; Activity [16]: 96%; IC50 (Neutrophil collagenase [17]): 5 µM; IC50 (Caspase-4): 5 µM; Activity (Caspase-1 (Homo sapiens)): 90%; IC50 (Stromelysin-2): 5 µM; IC50 (Caspase-2): 5 µM; Activity [18]: 90%; IC50 (Interstitial collagenase): 5 µM; Activity [19]: 81%; IC50 (Stromelysin-3): 5 µM
